Measured values from patent US8901133B2, “Heterocyclic compounds and uses thereof” (Infinity Pharmaceuticals, Inc., priority 2010, dated 2014).

Each molecule was assayed against T1, PI3Kδ (Homo sapiens, UniProt O00329) (assay: PI3 Kinase HTRF assay, PI3Kδ). Conditions: 10 μM PIP2, 10 μM ATP; read-out: PI3K δ IC50.
T1 construct: purchased Millipore Corporation 14-604-K
Format: biochemical
Method in brief: (§1)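 Time-resolved FRET kit assay measuring PIP3 made from 10 μM PIP2, ATP 10 μM, 1 h room temperature. IC50 fitted from 12-point dose-response.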

T1 sequence (O00329 whole entry): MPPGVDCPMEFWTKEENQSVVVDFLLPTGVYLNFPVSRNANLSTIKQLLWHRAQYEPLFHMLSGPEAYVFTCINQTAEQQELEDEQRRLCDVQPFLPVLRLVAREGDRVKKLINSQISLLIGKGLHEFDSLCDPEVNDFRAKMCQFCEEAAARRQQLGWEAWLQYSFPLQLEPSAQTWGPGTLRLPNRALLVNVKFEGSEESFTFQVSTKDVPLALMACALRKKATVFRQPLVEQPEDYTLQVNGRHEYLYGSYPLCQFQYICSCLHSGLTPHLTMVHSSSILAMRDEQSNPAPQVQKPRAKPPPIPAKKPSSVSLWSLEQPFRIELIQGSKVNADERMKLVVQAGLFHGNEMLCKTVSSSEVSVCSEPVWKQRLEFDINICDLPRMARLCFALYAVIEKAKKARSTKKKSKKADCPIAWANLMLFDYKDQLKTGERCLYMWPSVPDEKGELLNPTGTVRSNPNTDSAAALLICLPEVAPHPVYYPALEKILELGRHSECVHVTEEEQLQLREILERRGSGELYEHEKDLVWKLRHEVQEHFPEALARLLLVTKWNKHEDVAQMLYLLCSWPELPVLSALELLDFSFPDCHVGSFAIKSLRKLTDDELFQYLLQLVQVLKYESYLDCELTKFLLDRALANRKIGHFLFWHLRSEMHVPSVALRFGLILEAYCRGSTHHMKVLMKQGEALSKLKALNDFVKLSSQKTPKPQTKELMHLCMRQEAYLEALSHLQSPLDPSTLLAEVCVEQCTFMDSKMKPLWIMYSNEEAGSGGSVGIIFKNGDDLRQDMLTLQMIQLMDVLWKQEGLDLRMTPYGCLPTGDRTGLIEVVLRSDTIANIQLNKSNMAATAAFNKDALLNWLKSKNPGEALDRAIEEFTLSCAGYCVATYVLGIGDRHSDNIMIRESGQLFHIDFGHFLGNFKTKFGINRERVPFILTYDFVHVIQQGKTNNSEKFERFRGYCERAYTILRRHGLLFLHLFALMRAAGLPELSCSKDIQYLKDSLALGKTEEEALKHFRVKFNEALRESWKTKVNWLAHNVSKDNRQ
T1 sequence (P27986 whole entry partner): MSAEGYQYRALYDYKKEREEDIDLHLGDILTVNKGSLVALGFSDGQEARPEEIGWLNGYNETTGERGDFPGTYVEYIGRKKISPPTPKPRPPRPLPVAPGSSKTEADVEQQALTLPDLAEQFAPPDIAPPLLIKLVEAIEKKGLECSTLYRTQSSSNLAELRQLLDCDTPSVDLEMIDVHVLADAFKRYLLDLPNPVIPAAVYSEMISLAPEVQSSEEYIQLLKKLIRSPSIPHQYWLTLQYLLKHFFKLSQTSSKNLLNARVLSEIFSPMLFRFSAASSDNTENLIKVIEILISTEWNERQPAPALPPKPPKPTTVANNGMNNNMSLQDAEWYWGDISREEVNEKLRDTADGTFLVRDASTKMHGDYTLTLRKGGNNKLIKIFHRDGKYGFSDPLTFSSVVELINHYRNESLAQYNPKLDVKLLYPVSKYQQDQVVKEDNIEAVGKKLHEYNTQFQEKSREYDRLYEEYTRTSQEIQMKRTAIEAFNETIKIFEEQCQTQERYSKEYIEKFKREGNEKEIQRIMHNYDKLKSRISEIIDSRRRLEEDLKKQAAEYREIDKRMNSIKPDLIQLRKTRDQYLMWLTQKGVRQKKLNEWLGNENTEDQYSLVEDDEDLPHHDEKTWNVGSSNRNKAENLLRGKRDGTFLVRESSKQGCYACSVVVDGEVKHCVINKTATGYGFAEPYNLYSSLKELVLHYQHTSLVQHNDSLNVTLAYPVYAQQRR

Structure (SMILES) | IC50
Cc1cccc2cc([C@H](C)Nc3ncnc4[nH]cnc34)nc(CCN3CCOCC3)c12 [Compound 146] | < 0.1 µM
Cc1cccc2cc([C@H](C)Nc3ncnc4[nH]cnc34)nc(C(=O)N3C4CCC3COC4)c12 [Compound 149] | < 0.1 µM
C[C@H](Nc1ncnc2[nH]cnc12)c1cc2cccc(-c3cnn(C)c3)c2c(OCCN2CCCC2)n1 [Compound 151] | < 0.1 µM
CC(C)N1CCC(Oc2nc([C@H](C)Nc3ncnc4[nH]cnc34)cc3cccc(-c4cnn(C)c4)c23)CC1 [Compound 158] | < 0.1 µM
CC(C)N1CCC(Oc2nc([C@H](C)Nc3ncnc4cccnc34)cc3cccc(-c4cnn(C)c4)c23)CC1 [Compound 160] | < 0.1 µM
Cc1cccc2cc([C@H](C)Nc3ncnc4cccnc34)nc(OCCN3CCCC3)c12 [Compound 162] | < 0.1 µM
Cc1cccc2cc([C@H](C)Nc3ncnc4cccnc34)nc(OC3CCN(C(C)C)CC3)c12 [Compound 163] | < 0.1 µM
Cc1cccc2cc([C@H](C)Nc3ncnc4cccnc34)nc(N3CCN(C)CC3)c12 [Compound 164] | < 0.1 µM
Cc1cccc2cc([C@H](C)Nc3ncnc4cccnc34)nc(CCN3CCOCC3)c12 [Compound 165] | < 0.1 µM
Cc1cccc2cc([C@H](C)Nc3ncnc4cccnc34)nc(C(=O)N3CCOCC3)c12 [Compound 166] | < 0.1 µM
Cc1cccc2cc([C@H](C)Nc3ncnc4cccnc34)nc(C(=O)N3C4CCC3COC4)c12 [Compound 167] | < 0.1 µM
C[C@H](Nc1ncnc2scnc12)c1cc2cccc(Cl)c2c(OC2CCN(S(C)(=O)=O)CC2)n1 [Compound 172] | < 0.1 µM
C[C@H](Nc1ncnc2cccnc12)c1cc2cccc(Cl)c2c(OC2CCN(S(C)(=O)=O)CC2)n1 [Compound 173] | < 0.1 µM
C[C@H](Nc1ccnn2ccnc12)c1cc2cccc(Cl)c2c(OC2CCN(S(C)(=O)=O)CC2)n1 [Compound 176] | < 0.1 µM
C[C@H](Nc1ccnc2ccnn12)c1cc2cccc(Cl)c2c(C(=O)NC2CCOCC2)n1 [Compound 177] | < 0.1 µM
C[C@H](Nc1ccnn2ccnc12)c1cc2cccc(Cl)c2c(C(=O)NC2CCOCC2)n1 [Compound 180] | < 0.1 µM

These molecules were tested against T2, PI3Kγ (Homo sapiens, UniProt P48736) (assay: PI3 Kinase HTRF assay, PI3Kγ). Conditions: 10 μM PIP2, 10 μM ATP; read-out: PI3K γ IC50.
T2 construct: purchased Millipore Corporation 14-558-K
T2 sequence (P48736 whole entry): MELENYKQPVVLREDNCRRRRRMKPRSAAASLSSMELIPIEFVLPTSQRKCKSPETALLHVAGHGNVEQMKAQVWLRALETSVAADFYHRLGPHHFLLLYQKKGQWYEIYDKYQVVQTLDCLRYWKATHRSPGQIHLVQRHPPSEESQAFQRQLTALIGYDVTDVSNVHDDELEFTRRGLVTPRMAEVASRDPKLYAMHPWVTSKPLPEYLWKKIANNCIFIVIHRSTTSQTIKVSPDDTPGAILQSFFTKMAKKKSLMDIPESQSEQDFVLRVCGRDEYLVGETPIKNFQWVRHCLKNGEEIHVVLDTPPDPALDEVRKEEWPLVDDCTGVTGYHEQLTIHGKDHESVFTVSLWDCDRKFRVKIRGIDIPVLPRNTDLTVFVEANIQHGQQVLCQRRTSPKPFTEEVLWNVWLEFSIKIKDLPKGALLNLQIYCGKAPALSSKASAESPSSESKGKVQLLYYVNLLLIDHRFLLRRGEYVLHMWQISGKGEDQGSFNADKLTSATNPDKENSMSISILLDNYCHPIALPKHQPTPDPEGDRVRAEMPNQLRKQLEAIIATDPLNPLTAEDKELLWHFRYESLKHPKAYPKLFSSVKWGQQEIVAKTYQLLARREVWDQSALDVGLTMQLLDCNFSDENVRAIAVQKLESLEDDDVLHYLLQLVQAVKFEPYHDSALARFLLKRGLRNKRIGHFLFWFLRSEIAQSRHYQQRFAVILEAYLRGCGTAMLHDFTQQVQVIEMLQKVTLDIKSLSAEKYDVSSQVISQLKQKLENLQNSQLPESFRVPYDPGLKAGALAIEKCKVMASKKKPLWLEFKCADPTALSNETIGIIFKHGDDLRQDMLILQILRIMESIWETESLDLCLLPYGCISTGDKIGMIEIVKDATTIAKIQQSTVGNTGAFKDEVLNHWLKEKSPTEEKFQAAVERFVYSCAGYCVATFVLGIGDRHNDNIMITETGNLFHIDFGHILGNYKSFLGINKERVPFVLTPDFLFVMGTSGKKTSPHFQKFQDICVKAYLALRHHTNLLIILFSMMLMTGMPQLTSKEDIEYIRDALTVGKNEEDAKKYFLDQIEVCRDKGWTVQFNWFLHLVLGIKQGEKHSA
Format: biochemical
Method in brief: as §1

Structure (SMILES) | IC50
Cc1cccc2cc([C@H](C)Nc3ncnc4[nH]cnc34)nc(CCN3CCOCC3)c12 [Compound 146] | < 10 µM
Cc1cccc2cc([C@H](C)Nc3ncnc4[nH]cnc34)nc(C(=O)N3C4CCC3COC4)c12 [Compound 149] | < 10 µM
C[C@H](Nc1ncnc2[nH]cnc12)c1cc2cccc(-c3cnn(C)c3)c2c(OCCN2CCCC2)n1 [Compound 151] | < 10 µM
CC(C)N1CCC(Oc2nc([C@H](C)Nc3ncnc4[nH]cnc34)cc3cccc(-c4cnn(C)c4)c23)CC1 [Compound 158] | > 10 µM
CC(C)N1CCC(Oc2nc([C@H](C)Nc3ncnc4cccnc34)cc3cccc(-c4cnn(C)c4)c23)CC1 [Compound 160] | < 10 µM
Cc1cccc2cc([C@H](C)Nc3ncnc4cccnc34)nc(OCCN3CCCC3)c12 [Compound 162] | < 1 µM
Cc1cccc2cc([C@H](C)Nc3ncnc4cccnc34)nc(OC3CCN(C(C)C)CC3)c12 [Compound 163] | < 10 µM
Cc1cccc2cc([C@H](C)Nc3ncnc4cccnc34)nc(N3CCN(C)CC3)c12 [Compound 164] | < 10 µM
Cc1cccc2cc([C@H](C)Nc3ncnc4cccnc34)nc(CCN3CCOCC3)c12 [Compound 165] | < 10 µM
Cc1cccc2cc([C@H](C)Nc3ncnc4cccnc34)nc(C(=O)N3CCOCC3)c12 [Compound 166] | < 1 µM
Cc1cccc2cc([C@H](C)Nc3ncnc4cccnc34)nc(C(=O)N3C4CCC3COC4)c12 [Compound 167] | < 1 µM
C[C@H](Nc1ncnc2scnc12)c1cc2cccc(Cl)c2c(OC2CCN(S(C)(=O)=O)CC2)n1 [Compound 172] | < 10 µM
C[C@H](Nc1ncnc2cccnc12)c1cc2cccc(Cl)c2c(OC2CCN(S(C)(=O)=O)CC2)n1 [Compound 173] | < 10 µM
C[C@H](Nc1ccnn2ccnc12)c1cc2cccc(Cl)c2c(OC2CCN(S(C)(=O)=O)CC2)n1 [Compound 176] | < 10 µM
C[C@H](Nc1ccnc2ccnn12)c1cc2cccc(Cl)c2c(C(=O)NC2CCOCC2)n1 [Compound 177] | > 10 µM
C[C@H](Nc1ccnn2ccnc12)c1cc2cccc(Cl)c2c(C(=O)NC2CCOCC2)n1 [Compound 180] | > 10 µM

Each molecule was assayed against T3, PI3Kα (Homo sapiens, UniProt P42336) (assay: PI3 Kinase HTRF assay, PI3Kα). Conditions: 10 μM PIP2, 10 μM ATP; read-out: PI3K α IC50.
T3 construct: purchased Millipore Corporation 14-602-K
T3 sequence (P42336 whole entry): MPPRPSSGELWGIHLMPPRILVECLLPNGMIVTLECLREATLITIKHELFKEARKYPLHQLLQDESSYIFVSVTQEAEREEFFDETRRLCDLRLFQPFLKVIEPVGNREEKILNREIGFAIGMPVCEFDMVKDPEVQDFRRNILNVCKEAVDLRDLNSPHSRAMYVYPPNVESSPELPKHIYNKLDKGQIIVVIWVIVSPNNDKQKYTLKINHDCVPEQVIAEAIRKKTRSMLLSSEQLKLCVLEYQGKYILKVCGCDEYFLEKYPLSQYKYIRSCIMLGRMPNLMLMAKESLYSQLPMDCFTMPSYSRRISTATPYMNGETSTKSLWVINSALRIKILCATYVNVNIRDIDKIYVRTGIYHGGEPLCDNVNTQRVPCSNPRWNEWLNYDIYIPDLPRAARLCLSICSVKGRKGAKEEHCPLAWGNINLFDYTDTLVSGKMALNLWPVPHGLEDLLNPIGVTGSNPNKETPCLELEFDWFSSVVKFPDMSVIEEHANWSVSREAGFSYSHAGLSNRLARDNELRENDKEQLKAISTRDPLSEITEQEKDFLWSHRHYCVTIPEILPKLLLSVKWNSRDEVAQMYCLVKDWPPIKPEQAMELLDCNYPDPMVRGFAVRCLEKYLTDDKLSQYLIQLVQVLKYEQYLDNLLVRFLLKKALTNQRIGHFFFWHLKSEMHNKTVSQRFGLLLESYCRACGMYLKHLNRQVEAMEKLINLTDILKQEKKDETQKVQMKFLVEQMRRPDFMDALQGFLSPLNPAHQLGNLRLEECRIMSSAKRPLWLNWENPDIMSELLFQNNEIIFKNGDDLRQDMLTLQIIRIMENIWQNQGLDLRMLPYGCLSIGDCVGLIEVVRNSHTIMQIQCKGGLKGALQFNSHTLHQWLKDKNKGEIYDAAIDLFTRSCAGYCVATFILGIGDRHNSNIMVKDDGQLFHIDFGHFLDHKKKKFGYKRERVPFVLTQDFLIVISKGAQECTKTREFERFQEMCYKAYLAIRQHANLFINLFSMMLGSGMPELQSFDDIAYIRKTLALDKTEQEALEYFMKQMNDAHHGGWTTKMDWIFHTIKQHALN
T3 sequence (P27986 whole entry partner): as the sequence (P27986 whole entry partner) above
Format: biochemical
Method in brief: as §1

Structure (SMILES) | IC50
Cc1cccc2cc([C@H](C)Nc3ncnc4[nH]cnc34)nc(CCN3CCOCC3)c12 [Compound 146] | > 10 µM
Cc1cccc2cc([C@H](C)Nc3ncnc4[nH]cnc34)nc(C(=O)N3C4CCC3COC4)c12 [Compound 149] | > 10 µM
C[C@H](Nc1ncnc2[nH]cnc12)c1cc2cccc(-c3cnn(C)c3)c2c(OCCN2CCCC2)n1 [Compound 151] | > 10 µM
CC(C)N1CCC(Oc2nc([C@H](C)Nc3ncnc4[nH]cnc34)cc3cccc(-c4cnn(C)c4)c23)CC1 [Compound 158] | > 10 µM
CC(C)N1CCC(Oc2nc([C@H](C)Nc3ncnc4cccnc34)cc3cccc(-c4cnn(C)c4)c23)CC1 [Compound 160] | < 10 µM
Cc1cccc2cc([C@H](C)Nc3ncnc4cccnc34)nc(OCCN3CCCC3)c12 [Compound 162] | < 1 µM
Cc1cccc2cc([C@H](C)Nc3ncnc4cccnc34)nc(OC3CCN(C(C)C)CC3)c12 [Compound 163] | < 10 µM
Cc1cccc2cc([C@H](C)Nc3ncnc4cccnc34)nc(N3CCN(C)CC3)c12 [Compound 164] | < 10 µM
Cc1cccc2cc([C@H](C)Nc3ncnc4cccnc34)nc(CCN3CCOCC3)c12 [Compound 165] | < 10 µM
Cc1cccc2cc([C@H](C)Nc3ncnc4cccnc34)nc(C(=O)N3CCOCC3)c12 [Compound 166] | < 10 µM
Cc1cccc2cc([C@H](C)Nc3ncnc4cccnc34)nc(C(=O)N3C4CCC3COC4)c12 [Compound 167] | < 10 µM
C[C@H](Nc1ncnc2scnc12)c1cc2cccc(Cl)c2c(OC2CCN(S(C)(=O)=O)CC2)n1 [Compound 172] | > 10 µM
C[C@H](Nc1ncnc2cccnc12)c1cc2cccc(Cl)c2c(OC2CCN(S(C)(=O)=O)CC2)n1 [Compound 173] | > 10 µM
C[C@H](Nc1ccnn2ccnc12)c1cc2cccc(Cl)c2c(OC2CCN(S(C)(=O)=O)CC2)n1 [Compound 176] | > 10 µM
C[C@H](Nc1ccnc2ccnn12)c1cc2cccc(Cl)c2c(C(=O)NC2CCOCC2)n1 [Compound 177] | > 10 µM
C[C@H](Nc1ccnn2ccnc12)c1cc2cccc(Cl)c2c(C(=O)NC2CCOCC2)n1 [Compound 180] | > 10 µM

Each molecule was assayed against T4, PI3Kβ (Homo sapiens, UniProt P42338) (assay: PI3 Kinase HTRF assay, PI3Kβ). Conditions: 10 μM PIP2, 10 μM ATP; read-out: PI3K β IC50.
T4 construct: purchased Millipore Corporation 14-603-K
T4 sequence (P42338 whole entry): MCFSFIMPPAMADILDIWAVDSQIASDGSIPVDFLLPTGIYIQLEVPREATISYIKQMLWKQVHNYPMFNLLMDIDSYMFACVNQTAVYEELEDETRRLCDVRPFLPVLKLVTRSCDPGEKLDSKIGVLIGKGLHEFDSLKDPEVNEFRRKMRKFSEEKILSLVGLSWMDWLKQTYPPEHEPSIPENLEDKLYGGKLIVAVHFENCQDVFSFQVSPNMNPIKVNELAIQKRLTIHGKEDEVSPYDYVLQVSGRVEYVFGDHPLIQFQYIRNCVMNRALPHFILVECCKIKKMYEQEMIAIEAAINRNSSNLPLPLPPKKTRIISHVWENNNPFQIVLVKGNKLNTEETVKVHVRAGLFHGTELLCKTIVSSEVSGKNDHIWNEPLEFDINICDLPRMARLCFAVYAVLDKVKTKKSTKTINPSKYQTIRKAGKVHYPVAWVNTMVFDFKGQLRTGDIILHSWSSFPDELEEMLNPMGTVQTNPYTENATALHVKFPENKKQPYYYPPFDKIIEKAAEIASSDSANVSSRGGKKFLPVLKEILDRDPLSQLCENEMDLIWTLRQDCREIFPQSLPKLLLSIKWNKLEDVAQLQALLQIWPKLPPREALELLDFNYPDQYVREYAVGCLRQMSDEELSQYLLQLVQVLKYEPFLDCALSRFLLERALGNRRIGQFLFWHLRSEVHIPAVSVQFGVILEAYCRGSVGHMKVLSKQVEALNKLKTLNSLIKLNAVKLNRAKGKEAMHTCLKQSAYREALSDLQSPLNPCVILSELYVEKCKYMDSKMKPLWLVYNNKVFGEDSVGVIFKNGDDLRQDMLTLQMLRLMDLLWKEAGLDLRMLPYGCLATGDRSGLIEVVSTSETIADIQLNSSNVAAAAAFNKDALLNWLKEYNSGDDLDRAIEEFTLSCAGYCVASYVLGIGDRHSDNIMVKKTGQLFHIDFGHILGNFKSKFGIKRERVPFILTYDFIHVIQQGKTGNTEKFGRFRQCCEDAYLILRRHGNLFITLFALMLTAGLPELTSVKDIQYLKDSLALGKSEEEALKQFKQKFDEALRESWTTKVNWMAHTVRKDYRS
T4 sequence (P27986 whole entry partner): as the sequence (P27986 whole entry partner) above
Format: biochemical
Method in brief: as §1

Structure (SMILES) | IC50
Cc1cccc2cc([C@H](C)Nc3ncnc4[nH]cnc34)nc(CCN3CCOCC3)c12 [Compound 146] | < 10 µM
Cc1cccc2cc([C@H](C)Nc3ncnc4[nH]cnc34)nc(C(=O)N3C4CCC3COC4)c12 [Compound 149] | > 10 µM
C[C@H](Nc1ncnc2[nH]cnc12)c1cc2cccc(-c3cnn(C)c3)c2c(OCCN2CCCC2)n1 [Compound 151] | < 10 µM
CC(C)N1CCC(Oc2nc([C@H](C)Nc3ncnc4[nH]cnc34)cc3cccc(-c4cnn(C)c4)c23)CC1 [Compound 158] | < 10 µM
CC(C)N1CCC(Oc2nc([C@H](C)Nc3ncnc4cccnc34)cc3cccc(-c4cnn(C)c4)c23)CC1 [Compound 160] | > 10 µM
Cc1cccc2cc([C@H](C)Nc3ncnc4cccnc34)nc(OCCN3CCCC3)c12 [Compound 162] | < 10 µM
Cc1cccc2cc([C@H](C)Nc3ncnc4cccnc34)nc(OC3CCN(C(C)C)CC3)c12 [Compound 163] | > 10 µM
Cc1cccc2cc([C@H](C)Nc3ncnc4cccnc34)nc(N3CCN(C)CC3)c12 [Compound 164] | < 10 µM
Cc1cccc2cc([C@H](C)Nc3ncnc4cccnc34)nc(CCN3CCOCC3)c12 [Compound 165] | > 10 µM
Cc1cccc2cc([C@H](C)Nc3ncnc4cccnc34)nc(C(=O)N3CCOCC3)c12 [Compound 166] | < 10 µM
Cc1cccc2cc([C@H](C)Nc3ncnc4cccnc34)nc(C(=O)N3C4CCC3COC4)c12 [Compound 167] | < 10 µM
C[C@H](Nc1ncnc2scnc12)c1cc2cccc(Cl)c2c(OC2CCN(S(C)(=O)=O)CC2)n1 [Compound 172] | < 10 µM
C[C@H](Nc1ncnc2cccnc12)c1cc2cccc(Cl)c2c(OC2CCN(S(C)(=O)=O)CC2)n1 [Compound 173] | < 10 µM
C[C@H](Nc1ccnn2ccnc12)c1cc2cccc(Cl)c2c(OC2CCN(S(C)(=O)=O)CC2)n1 [Compound 176] | < 10 µM
C[C@H](Nc1ccnc2ccnn12)c1cc2cccc(Cl)c2c(C(=O)NC2CCOCC2)n1 [Compound 177] | > 10 µM
C[C@H](Nc1ccnn2ccnc12)c1cc2cccc(Cl)c2c(C(=O)NC2CCOCC2)n1 [Compound 180] | > 10 µM

What follows are molecules tested on Balb/c splenic B cells (assay: B cell activation and proliferation assay (Alamar Blue)). Conditions: Mus musculus, read-out: B cell prolif. IC50.
Format: cell-based
Procedure: The ability of one or more subject compounds to inhibit B cell activation and proliferation is determined according to standard procedures known in the art. For example, an in vitro cellular proliferation assay is established that measures the metabolic activity of live cells. The assay is performed in a 96 well microtiter plate using Alamar Blue reduction. Balb/c splenic B cells are purified over a Ficoll-Paque™ PLUS gradient followed by magnetic cell separation using a MACS B cell Isolation Kit (Miletenyi). Cells are plated in 90 ul at 50,000 cells/well in B Cell Media (RPMI+10% FBS+Penn/Strep+50 uM bME+5 mM HEPES). A compound disclosed herein is diluted in B Cell Media and added in a 10 μl volume. Plates are incubated for 30 min at 37 C and 5% CO2 (0.2% DMSO final concentration). A 50 μl B cell stimulation cocktail is then added containing either 10 ug/ml LPS or 5 ug/ml F(ab′)2 Donkey anti-mouse IgM plus 2 ng/ml recombinant mouse IL4 in B Cell Media. Plates are incubated for 72 hours at 37° C. and 5% CO2. A volume of 15 μl of Alamar Blue reagent is added to each well and plates are incubated for 5 hours at 37 C and 5% CO2. Alamar Blue fluoresce is read at 560Ex/590Em, and IC50 or EC50 values are calculated using GraphPad Prism 5.

Structure (SMILES) | IC50
Cc1cccc2cc([C@H](C)Nc3ncnc4[nH]cnc34)nc(CCN3CCOCC3)c12 [Compound 146] | < 0.1 µM
Cc1cccc2cc([C@H](C)Nc3ncnc4[nH]cnc34)nc(C(=O)N3C4CCC3COC4)c12 [Compound 149] | < 0.1 µM
C[C@H](Nc1ncnc2[nH]cnc12)c1cc2cccc(-c3cnn(C)c3)c2c(OCCN2CCCC2)n1 [Compound 151] | < 0.1 µM
CC(C)N1CCC(Oc2nc([C@H](C)Nc3ncnc4[nH]cnc34)cc3cccc(-c4cnn(C)c4)c23)CC1 [Compound 158] | < 1 µM
CC(C)N1CCC(Oc2nc([C@H](C)Nc3ncnc4cccnc34)cc3cccc(-c4cnn(C)c4)c23)CC1 [Compound 160] | < 0.1 µM
Cc1cccc2cc([C@H](C)Nc3ncnc4cccnc34)nc(OCCN3CCCC3)c12 [Compound 162] | < 0.1 µM
Cc1cccc2cc([C@H](C)Nc3ncnc4cccnc34)nc(OC3CCN(C(C)C)CC3)c12 [Compound 163] | < 0.1 µM
Cc1cccc2cc([C@H](C)Nc3ncnc4cccnc34)nc(N3CCN(C)CC3)c12 [Compound 164] | < 0.1 µM
Cc1cccc2cc([C@H](C)Nc3ncnc4cccnc34)nc(CCN3CCOCC3)c12 [Compound 165] | < 0.1 µM
Cc1cccc2cc([C@H](C)Nc3ncnc4cccnc34)nc(C(=O)N3CCOCC3)c12 [Compound 166] | < 0.1 µM
Cc1cccc2cc([C@H](C)Nc3ncnc4cccnc34)nc(C(=O)N3C4CCC3COC4)c12 [Compound 167] | < 0.1 µM
C[C@H](Nc1ncnc2scnc12)c1cc2cccc(Cl)c2c(OC2CCN(S(C)(=O)=O)CC2)n1 [Compound 172] | < 1 µM
C[C@H](Nc1ncnc2cccnc12)c1cc2cccc(Cl)c2c(OC2CCN(S(C)(=O)=O)CC2)n1 [Compound 173] | < 1 µM
C[C@H](Nc1ccnn2ccnc12)c1cc2cccc(Cl)c2c(OC2CCN(S(C)(=O)=O)CC2)n1 [Compound 176] | < 1 µM
C[C@H](Nc1ccnc2ccnn12)c1cc2cccc(Cl)c2c(C(=O)NC2CCOCC2)n1 [Compound 177] | < 0.1 µM
C[C@H](Nc1ccnn2ccnc12)c1cc2cccc(Cl)c2c(C(=O)NC2CCOCC2)n1 [Compound 180] | < 0.1 µM
